Laboratory results: patent US20240109842A1, “ACRYLAMIDE COMPOUNDS” (OTSUKA PHARMACEUTICAL CO., LTD., priority 2019, published 2024)

Key:
[1] = test system: immortalized megakaryocyte cell line; assay: Test Example 2: platelet production, shake culturing, with various aryl hydrocarbon receptor antagonists
[2] = test system: immortalized megakaryocyte cell line; assay: Test Example 1: platelet production, shake culturing; type: cell-based; details: compound 10 μM added at Day 3; for fold induction at 10 µM: Platelet, 144 h, DMSO added at cell seeding (no AhR antagonist), platelets (CD41, CD42a, CD42b-positive) counted after 6 days, read-out: Amount of platelet production (vs. Control); for Amount of platelet production (vs. Control): aryl hydrocarbon receptor antagonist Compound A5 0.1 μM added at cell seeding, counted after 6 days
Method: The immortalized megakaryocyte cell line obtained according to the method described in WO 2016/204256 was washed twice with D-PBS(−) and then cultured in medium not containing doxycycline to terminate forced expression (cultured under conditions where gene expression is OFF). Shake culturing at 100 rpm was performed in the following medium after the cells were seeded in a 125-mL polycarbonate Erlenmeyer flask (Corning #431143) at 25 mL/flask and a seeding density of 1×10^5 cells/mL. Culturing conditions were 37° C. and 5% CO2. The medium was obtained by adding the following components to IMDM serving as the basal medium (concentrations indicate final concentrations). • FBS 15% • L-Glutamine 2 mM • ITS 100-fold dilution • MTG 450 μM • Ascorbic acid 50 μg/mL • SCF 50 ng/mL • TA-316 0.1 μg/mL • ADAM inhibitor 15 μM • ROCK inhibitor 0.5 μM […] After culturing for 6 days in total, the number of platelets was measured. The measurement method was as follows. The same operation was performed for control. At 6 days after initiation of the culturing under conditions where gene expression was OFF, a part of the culture supernatant was collected, and suspended with the following antibody and Flow-Count Fluorospheres (Beckman Coulter #7547053) to perform staining. • APC-labeled anti-CD41 antibody (BioLegend #303710) • eFluor 450-labeled anti-CD42a antibody (eBioscience #48-0428-42) • PE-labeled anti-CD42b antibody (BioLegend #303906) At 30 minutes after staining, number of platelets (CD41, CD42a and CD42b-positive cells) was counted by using FACSVerse (manufactured by BD Japan) with Flow-Count Fluorospheres. The number of platelets was given as a percentage of the control.

[3] = Platelet, 144 h, read-out: Amount of platelet production (vs. Control)
[4] = comparative examples: only an aryl hydrocarbon receptor antagonist, no acrylamide compound, A1 0.75 μM, A2 0.1 μM, A3 10 μM, A4 1 μM, A5 to A8 0.1 μM
[5] = with aryl hydrocarbon receptor antagonist Compound A2 0.1 μM, otherwise as Test Example 1

SMILES | fold induction at 10 µM [2] | Amount of platelet production (vs. Control) [2] | also measured
CC(C)n1cnc2c(NCCc3ccc(O)cc3)nc(-c3csc4ccccc34)nc21 [Compound A1, 4-[2-[[2-benzo[b]thien-3-yl-9-(1-methylethyl)-9H-purin-6-yl]amino]ethyl]phenol, reference compound] | – | – | fold induction at 0.75 µM [1, 3]: 1.5 to 6.5
Cc1cc(-c2ccc(CC(=O)Nc3ccc(-c4cccnc4)cc3)cc2)ccn1 [Compound A3, 4-(2-Methyl-4-pyridinyl)-N-[4-(3-pyridinyl)phenyl]-benzeneacetamide, reference compound] | – | – | fold induction at 10 µM [1, 3]: 1.5 to 6.5
Cc1ccccc1/N=N/c1ccc(NC(=O)c2ccnn2C)c(C)c1 [Compound A4, 1-Methyl-N-[2-methyl-4-[2-(2-methylphenyl)diazenyl]phenyl]-1H-pyrazole-5-carboxamide, reference compound] | – | – | fold induction at 1 µM [1, 3]: 1.5 to 6.5
CC1(C)COc2nc3c(NCCc4ccc(O)c(-c5cccc(C#N)c5)c4)nc(-c4cncc(F)c4)nc3n21 [Compound A5, 3-[5-[2-[[2-(5-Fluoropyridin-3-yl)-8,8-dimethyl-7H-purino[8,9-b][1,3]oxazol-4-yl]amino]ethyl]-2-hydroxyphenyl]benzonitrile, reference compound] | – | – | Amount of platelet production (vs. Control) [1, 4]: + (the amount of platelets production increased by not less than 1.5 times and less than 6.5 times)
CC1(C)COc2nc3c(NCCc4ccc(O)c(-c5ccccc5F)c4)nc(-c4cncc(F)c4)nc3n21 [Compound A6, 2-(2-fluorophenyl)-4-[2-[[2-(5-fluoropyridin-3-yl)-8,8-dimethyl-7H-purino[8,9-b][1,3]oxazol-4-yl]amino]ethyl]phenol, reference compound] | – | – | Amount of platelet production (vs. Control) [1, 4]: + (the amount of platelets production increased by not less than 1.5 times and less than 6.5 times)
CC1(C)COc2nc3c(NCCc4ccc(O)c(-c5cncc(F)c5)c4)nc(-c4cncc(F)c4)nc3n21 [Compound A7, 2-(5-fluoropyridin-3-yl)-4-[2-[[2-(5-fluoropyridin-3-yl)-8,8-dimethyl-7H-purino[8,9-b][1,3]oxazol-4-yl]amino]ethyl]phenol, reference compound] | – | – | Amount of platelet production (vs. Control) [1, 4]: + (the amount of platelets production increased by not less than 1.5 times and less than 6.5 times)
CC1(C)CSc2nc3c(NCCc4ccc(O)c(-c5ccccc5F)c4)nc(-c4cncc(F)c4)nc3n21 [Compound A8, 2-(2-fluorophenyl)-4-[2-[[2-(5-fluoropyridin-3-yl)-8,8-dimethyl-7H-purino[8,9-b][1,3]thiazol-4-yl]amino]ethyl]phenol, reference compound] | – | – | fold induction at 0.1 µM [1, 3]: 1.5 to 6.5
COc1cccc2c(/C=C/C(=O)NCCc3sccc3-c3ncccn3)c[nH]c12 [Example 45, (E)-3-(7-methoxy-1H-indol-3-yl)-N-[2-(3-pyrimidin-2-ylthiophen-2-yl)ethyl]prop-2-enamide] | 1.5 to 6.5 | ++ (not less than 6.5 times) | –
Cc1cccc2c(/C=C/C(=O)NCCc3ccccc3-c3ncccn3)c[nH]c12 [Example 46] | 1.5 to 6.5 | ++ (not less than 6.5 times) | –
O=C(/C=C/c1c[nH]c2ccccc12)NCCc1ccccc1-c1ncccn1 [Example 47, (E)-3-(1H-indol-3-yl)-N-[2-(2-pyrimidin-2-ylphenyl)ethyl]prop-2-enamide] | 1.5 to 6.5 | ++ (not less than 6.5 times) | –
O=C(/C=C/c1c[nH]c2c(Cl)cccc12)NCCc1ccccc1-c1ncccn1 [Example 48] | 1.5 to 6.5 | ++ (not less than 6.5 times) | –
COc1nccc2c(/C=C/C(=O)NCCc3ccccc3-c3ncccn3)c[nH]c12 [Example 49] | 1.5 to 6.5 | ++ (not less than 6.5 times) | –
COc1cccc2c(/C=C/C(=O)NCCc3ccccc3-c3ncc(F)cn3)c[nH]c12 [Example 51] | 1.5 to 6.5 | ++ (not less than 6.5 times) | –
COc1cccc2c(/C=C/C(=O)NCCc3ccccc3-c3ncc(C)cn3)c[nH]c12 [Example 52] | 1.5 to 6.5 | ++ (not less than 6.5 times) | –
COc1cccc2c(/C=C/C(=O)NCCc3ccccc3-c3ncccn3)cn(C)c12 [Example 53] | 1.5 to 6.5 | ++ (not less than 6.5 times) | –
COCCn1cc(/C=C/C(=O)NCCc2ccccc2-c2ncccn2)c2cccc(OC)c21 [Example 54] | 1.5 to 6.5 | ++ (not less than 6.5 times) | –
COC(=O)n1cc(/C=C/C(=O)NCCc2ccccc2-c2ncc(OC)cn2)c2cccc(OC)c21 [Example 55] | 1.5 to 6.5 | ++ (not less than 6.5 times) | –
COc1cnc(-c2ccccc2CCNC(=O)/C=C/c2c[nH]c3c(OC)cccc23)nc1 [Example 56] | 1.5 to 6.5 | ++ (not less than 6.5 times) | –
CCOc1ccccc1CCNC(=O)/C=C/c1c[nH]c2c(CC)cccc12 [Example 57] | 1.5 to 6.5 | ++ (not less than 6.5 times) | Amount of platelet production (vs. Control) [1, 5]: ++ (not less than 6.5 times)
CCOc1ccc(OC)cc1CCNC(=O)/C=C/c1c[nH]c2c(OC)cccc12 [Example 59] | 1.5 to 6.5 | ++ (not less than 6.5 times) | Amount of platelet production (vs. Control) [1, 5]: ++ (not less than 6.5 times)
CCOc1ccccc1CCNC(=O)/C=C/c1c[nH]c2c(C)cccc12 [Example 60] | 1.5 to 6.5 | ++ (not less than 6.5 times) | Amount of platelet production (vs. Control) [1, 5]: ++ (not less than 6.5 times)
CCOc1ccccc1CCNC(=O)/C=C/c1c[nH]c2c(OC)cccc12 [Example 61] | 1.5 to 6.5 | ++ (not less than 6.5 times) | Amount of platelet production (vs. Control) ([1]; with aryl hydrocarbon receptor antagonist Compound A1 0.75 μM, otherwise as Test Example 1): ++ (not less than 6.5 times); Amount of platelet production (vs. Control) [1, 5]: ++ (not less than 6.5 times); Amount of platelet production (vs. Control) ([1]; with aryl hydrocarbon receptor antagonist Compound A3 10 μM, otherwise as Test Example 1): ++ (not less than 6.5 times); Amount of platelet production (vs. Control) ([1]; with aryl hydrocarbon receptor antagonist Compound A4 1 μM, otherwise as Test Example 1): ++ (not less than 6.5 times); Amount of platelet production (vs. Control) ([1]; with aryl hydrocarbon receptor antagonist Compound A7 0.1 μM, otherwise as Test Example 1): ++ (not less than 6.5 times); Amount of platelet production (vs. Control) ([1]; with aryl hydrocarbon receptor antagonist Compound A8 0.1 μM, otherwise as Test Example 1): ++ (not less than 6.5 times)
